# According to patent US20240246937A1 (MERCK SHARP & DOHME LLC, priority 2021, published 2024):
# Molecular target: recombinant IL4I1 (Homo sapiens (Human), UniProt Q96RQ9)
# Assay: IL4I1 Enzymatic Assay (Amplex Red/HRP coupled fluorescence detection of H2O2)
# Type: biochemical
# Details: 240 min; recombinant IL4I1, four-hour pre-incubation with compound
# In short: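 Ten-point, 1:3 compound titrations were fitted by four-parameter sigmoidal regression to give EC50. Resorufin fluorescence (544/590 nm) from Amplex Red/HRP-coupled H2O2 detection was read 120 min after adding 1 mM each aromatic amino acid to 1 nM IL4I1, following a 4 h compound pre-incubation in pH 7.0 Hepes buffer.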
# recombinant IL4I1, sequence (Q96RQ9 22-567): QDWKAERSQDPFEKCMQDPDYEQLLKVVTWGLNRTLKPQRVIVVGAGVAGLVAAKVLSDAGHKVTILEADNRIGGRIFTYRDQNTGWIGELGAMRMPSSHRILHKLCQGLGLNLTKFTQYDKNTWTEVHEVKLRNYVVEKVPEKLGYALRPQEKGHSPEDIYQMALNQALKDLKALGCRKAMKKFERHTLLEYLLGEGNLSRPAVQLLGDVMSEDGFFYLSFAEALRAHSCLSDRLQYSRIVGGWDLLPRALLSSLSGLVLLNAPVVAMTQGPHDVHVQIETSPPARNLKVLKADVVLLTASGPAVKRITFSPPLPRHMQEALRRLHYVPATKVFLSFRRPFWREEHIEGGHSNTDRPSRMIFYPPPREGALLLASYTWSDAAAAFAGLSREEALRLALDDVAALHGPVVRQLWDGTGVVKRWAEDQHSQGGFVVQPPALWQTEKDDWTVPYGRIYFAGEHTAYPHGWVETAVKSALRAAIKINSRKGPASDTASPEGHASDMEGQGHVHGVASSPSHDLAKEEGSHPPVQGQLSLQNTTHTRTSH
row,Structure (SMILES),EC50 [nM]
1,"O=C1C(=O)N(C23CC(F)(C2)C3)CCN1Cc1ccc(-n2nccn2)cn1 [Example 244, 1-((5-(2H-1,2,3-triazol-2-yl)pyridin-2-yl)methyl)-4-(3-fluorobicyclo[1.1.1]pentan-1-yl)piperazine-2,3-dione]",45
2,"O=C1C(=O)N(C23CC(F)(C2)C3)CCN1Cc1ccc(-n2ccnn2)nn1 [Example 249, 1-((6-(1H-1,2,3-triazol-1-yl)pyridazin-3-yl)methyl)-4-(3-fluorobicyclo[1.1.1]pentan-1-yl)piperazine-2,3-dione]",148
3,"O=c1c(=O)n(C23CC(C2)C3)ccn1Cc1cc(-c2cccnc2)on1 [Example 212, 1-(bicyclo[1.1.1]pentan-1-yl)-4-((5-(pyridin-3-yl)isoxazol-3-yl)methyl)-1,4-dihydropyrazine-2,3-dione]",10
4,"O=C1C(=O)N(C2CCCC2)CCN1Cc1ccc(-c2nccs2)nc1 [Example 364, 1-cyclopentyl-4-((6-(thiazol-2-yl)pyridin-3-yl)methyl)piperazine-2,3-dione]",17
5,"O=C1C(=O)N(C2CCCC2)CCN1Cc1nnc(-c2cccc(F)c2)s1 [Example 8, 1-cyclopentyl-4-((5-(3-fluorophenyl)-1,3,4-thiadiazol-2-yl)methyl)piperazine-2,3-dione]",7
6,"O=C1C(=O)N(C23CC(F)(C2)C3)CCN1Cc1cn(-c2ccccn2)nn1 [Example 259, 1-(3-fluorobicyclo[1.1.1]pentan-1-yl)-4-((1-(pyridin-2-yl)-1H-1,2,3-triazol-4-yl)methyl)piperazine-2,3-dione]",78
7,"O=c1c(=O)n(C23CC(C2)C3)ccn1Cc1ccc(-n2cccn2)cn1 [Example 382, 1-((5-(1H-pyrazol-1-yl)pyridin-2-yl)methyl)-4-(bicyclo[1.1.1]pentan-1-yl)-1,4-dihydropyrazine-2,3-dione]",25
8,"O=C1C(=O)N(C2CCC2)CCN1Cc1ccc(-c2cnco2)nn1 [Example 394, 1-cyclobutyl-4-((6-(oxazol-5-yl)pyridazin-3-yl)methyl)piperazine-2,3-dione]",31
9,"O=C1C(=O)N(C2CCCC2)CCN1Cc1ncc(-c2cncs2)cc1F [Example 10, 1-cyclopentyl-4-((3-fluoro-5-(thiazol-5-yl)pyridin-2-yl)methyl)piperazine-2,3-dione]",21
10,"CC1(n2ccn(Cc3ccc(-c4cccnc4)nn3)c(=O)c2=O)CC1 [Example 90, 1-(1-methylcyclopropyl)-4-((6-(pyridin-3-yl)pyridazin-3-yl)methyl)-1,4-dihydropyrazine-2,3-dione]",63
11,"O=C1C(=O)N(C2CCCC2)CCN1Cc1ccc(-c2cn[nH]c2)cc1F [Example 23, 1-cyclopentyl-4-(2-fluoro-4-(1H-pyrazol-4-yl)benzyl)piperazine-2,3-dione]",21
12,"O=C1C(=O)N(C23CC(C2)C3)CCN1Cc1ccc(-c2ccccc2)nn1 [Example 38, 1-(bicyclo[1.1.1]pentan-1-yl)-4-((6-phenylpyridazin-3-yl)methyl)piperazine-2,3-dione]",23
13,"O=C1C(=O)N(C23CC(F)(C2)C3)CCN1Cc1ccc(-n2nccn2)nc1 [Example 265, 1-((6-(2H-1,2,3-triazol-2-yl)pyridin-3-yl)methyl)-4-(3-fluorobicyclo[1.1.1]pentan-1-yl)piperazine-2,3-dione]",114
14,"O=C1C(=O)N(C2CCC2)CCN1Cc1ncc(-c2ccccn2)s1 [Example 376, 1-cyclobutyl-4-((5-(pyridin-2-yl)thiazol-2-yl)methyl)piperazine-2,3-dione]",14
15,"O=C1C(=O)N(C23CC(F)(C2)C3)CCN1Cc1cc(-c2ccccn2)no1 [Example 232, 1-(3-fluorobicyclo[1.1.1]pentan-1-yl)-4-((3-(pyridin-2-yl)isoxazol-5-yl)methyl)piperazine-2,3-dione]",82
16,"O=C1C(=O)N(C23CC(C2)C3)CCN1Cc1ccc(-c2ccccc2F)nn1 [Example 66, 1-(bicyclo[1.1.1]pentan-1-yl)-4-((6-(2-fluorophenyl)pyridazin-3-yl)methyl)piperazine-2,3-dione]",7
17,"O=C1C(=O)N(C23CC(C2)C3)CCN1Cc1ncc(-c2ccccc2)cn1 [Example 276, 1-(bicyclo[1.1.1]pentan-1-yl)-4-((5-phenylpyrimidin-2-yl)methyl)piperazine-2,3-dione]",26
18,"O=C1C(=O)N(C23CC(F)(C2)C3)CCN1Cc1ccc(-c2ccccn2)cn1 [Example 254, 1-([2,3′-bipyridin]-6′-ylmethyl)-4-(3-fluorobicyclo[1.1.1]pentan-1-yl)piperazine-2,3-dione]",93
19,"O=C1C(=O)N2CCCCC2CN1Cc1nnc(-c2ccccc2)s1 (single isomer, unassigned) [Example 180, (R or S)-2-((5-phenyl-1,3,4-thiadiazol-2-yl)methyl)hexahydro-2H-pyrido[1,2-a]pyrazine-3,4-dione]",97

row,Structure (SMILES),EC50 [nM]
1,"O=c1c(=O)n(C23CC(C2)C3)ccn1Cc1ccc(-c2ccccn2)cn1 [Example 86, 1-([2,3′-bipyridin]-6′-ylmethyl)-4-(bicyclo[1.1.1]pentan-1-yl)-1,4-dihydropyrazine-2,3-dione]",27
2,"O=C1C(=O)N(C23CC(F)(C2)C3)CCN1Cc1ccc(-n2cccn2)nc1 [Example 237, 1-((6-(1H-pyrazol-1-yl)pyridin-3-yl)methyl)-4-(3-fluorobicyclo[1.1.1]pentan-1-yl)piperazine-2,3-dione]",346
3,"CC1(n2ccn(Cc3cc(-c4ccccn4)on3)c(=O)c2=O)CC1 [Example 206, 1-(1-methylcyclopropyl)-4-((5-(pyridin-2-yl)isoxazol-3-yl)methyl)-1,4-dihydropyrazine-2,3-dione]",28
4,"O=C1C(=O)N(C2CCCC2)CCN1Cc1ccc(-n2nccn2)cn1 [Example 380, 1-((5-(2H-1,2,3-triazol-2-yl)pyridin-2-yl)methyl)-4-cyclopentylpiperazine-2,3-dione]",17
5,"CC1(n2ccn(Cc3ccc(-c4ccccc4F)nn3)c(=O)c2=O)CC1 [Example 197, 1-((6-(2-fluorophenyl)pyridazin-3-yl)methyl)-4-(1-methylcyclopropyl)-1,4-dihydropyrazine-2,3-dione]",33
6,"O=c1c(=O)n(C2(CF)CC2)ccn1Cc1ccc(-n2ccnn2)cn1 [Example 261, 1-((5-(1H-1,2,3-triazol-1-yl)pyridin-2-yl)methyl)-4-(1-(fluoromethyl)cyclopropyl)-1,4-dihydropyrazine-2,3-dione]",178
7,"O=C1C(=O)N(C2CCCC2)CCN1Cc1ccc(-c2cccc(F)c2)nn1 [Example 14, 1-cyclopentyl-4-((6-(3-fluorophenyl)pyridazin-3-yl)methyl)piperazine-2,3-dione]",6
8,"O=c1c(=O)n(C23CC(F)(C2)C3)ccn1Cc1ccc(-n2ccnn2)nn1 [Example 248, 1-((6-(1H-1,2,3-triazol-1-yl)pyridazin-3-yl)methyl)-4-(3-fluorobicyclo[1.1.1]pentan-1-yl)-1,4-dihydropyrazine-2,3-dione]",38
9,"O=C1C(=O)N(C2CCCC2)CCN1Cc1ccc(N2CCC2)nn1 [Example 318, 1-((6-(azetidin-1-yl)pyridazin-3-yl)methyl)-4-cyclopentylpiperazine-2,3-dione]",36
10,"CC(c1cnn(-c2ccccc2)c1)N1CCN(C2CCCC2)C(=O)C1=O (centres unmarked) [Example 347, 1-cyclopentyl-4-(1-(1-phenyl-1H-pyrazol-4-yl)ethyl)piperazine-2,3-dione]",74
11,"O=C1C(=O)N(C23CC(C2)C3)CCN1Cc1nnc(-c2ccc(F)cc2)s1 [Example 32, 1-(bicyclo[1.1.1]pentan-1-yl)-4-((5-(4-fluorophenyl)-1,3,4-thiadiazol-2-yl)methyl)piperazine-2,3-dione]",5
12,"CC(C)N1CCN(Cc2ncc(-c3ccccc3)cn2)C(=O)C1=O [Example 286, 1-isopropyl-4-((5-phenylpyrimidin-2-yl)methyl)piperazine-2,3-dione]",34
13,"O=C1C(=O)N(C2CCCC2)CCN1Cc1nnc(-c2ccccc2F)s1 [Example 13, 1-cyclopentyl-4-((5-(2-fluorophenyl)-1,3,4-thiadiazol-2-yl)methyl)piperazine-2,3-dione]",8
14,"O=C1C(=O)N(C23CC(C2)C3)CCN1Cc1ccc(-c2ccccc2)cn1 [Example 114, 1-(bicyclo[1.1.1]pentan-1-yl)-4-((5-phenylpyridin-2-yl)methyl)piperazine-2,3-dione]",7
15,"O=c1c(=O)n(C2(CF)CC2)ccn1Cc1cc(-c2ccccn2)on1 [Example 238, 1-(1-(fluoromethyl)cyclopropyl)-4-((5-(pyridin-2-yl)isoxazol-3-yl)methyl)-1,4-dihydropyrazine-2,3-dione]",29
16,"N#CC1(n2ccn(Cc3ccc(-c4ccccn4)nn3)c(=O)c2=O)CC1 [Example 91, 1-(2,3-dioxo-4-((6-(pyridin-2-yl)pyridazin-3-yl)methyl)-3,4-dihydropyrazin-1(2H)-yl)cyclopropane-1-carbonitrile]",162
17,"O=C1C(=O)N(C2(C(F)(F)F)CCC2)CCN1Cc1nnc(-c2ccccc2)s1 [Example 298, 1-((5-phenyl-1,3,4-thiadiazol-2-yl)methyl)-4-(1-(trifluoromethyl)cyclobutyl)piperazine-2,3-dione]",32
18,"O=C1C(=O)N([C@@H]2CC[C@@H](c3ccccc3)C2)CCN1Cc1nnc(-c2ccccc2)s1 (single isomer, unassigned) [Example 440B, (R or S, R or S)-1-((5-phenyl-1,3,4-thiadiazol-2-yl)methyl)-4-(3-phenylcyclopentyl)piperazine-2,3-dione]",6
19,"O=c1c(=O)n(C2(CF)CC2)ccn1Cc1ccc(-n2ccnn2)nn1 [Example 247, 1-((6-(1H-1,2,3-triazol-1-yl)pyridazin-3-yl)methyl)-4-(1-(fluoromethyl)cyclopropyl)-1,4-dihydropyrazine-2,3-dione]",44
